Data: US9340590B2 (priority 2011, dated 2016)
Positions of bridges follow the written chain, without caps; N, C: chain ends. Residues, ends and D or L forms follow the SMILES beside them.

Legend:
Assay in all cases: cell-based
hNav1.3 = hNav1.3 (Homo sapiens, UniProt Q9NY46); conditions: Table 26; IonWorks Quattro, use; […]; read-out: IWQ Use Nav1.3
hNav1.5 = hNav1.5 (Homo sapiens, UniProt Q14524); conditions: Table 26; IonWorks Quattro, use; […]; read-out: IWQ Use Nav1.5
hNav1.7 = hNav1.7 (Homo sapiens, UniProt Q15858); format: cell-based; conditions: Table 26; IonWorks Quattro, use; […]; read-out: IWQ Use Nav1.7

Chain of hNav1.3 (Q9NY46 whole entry, looked up): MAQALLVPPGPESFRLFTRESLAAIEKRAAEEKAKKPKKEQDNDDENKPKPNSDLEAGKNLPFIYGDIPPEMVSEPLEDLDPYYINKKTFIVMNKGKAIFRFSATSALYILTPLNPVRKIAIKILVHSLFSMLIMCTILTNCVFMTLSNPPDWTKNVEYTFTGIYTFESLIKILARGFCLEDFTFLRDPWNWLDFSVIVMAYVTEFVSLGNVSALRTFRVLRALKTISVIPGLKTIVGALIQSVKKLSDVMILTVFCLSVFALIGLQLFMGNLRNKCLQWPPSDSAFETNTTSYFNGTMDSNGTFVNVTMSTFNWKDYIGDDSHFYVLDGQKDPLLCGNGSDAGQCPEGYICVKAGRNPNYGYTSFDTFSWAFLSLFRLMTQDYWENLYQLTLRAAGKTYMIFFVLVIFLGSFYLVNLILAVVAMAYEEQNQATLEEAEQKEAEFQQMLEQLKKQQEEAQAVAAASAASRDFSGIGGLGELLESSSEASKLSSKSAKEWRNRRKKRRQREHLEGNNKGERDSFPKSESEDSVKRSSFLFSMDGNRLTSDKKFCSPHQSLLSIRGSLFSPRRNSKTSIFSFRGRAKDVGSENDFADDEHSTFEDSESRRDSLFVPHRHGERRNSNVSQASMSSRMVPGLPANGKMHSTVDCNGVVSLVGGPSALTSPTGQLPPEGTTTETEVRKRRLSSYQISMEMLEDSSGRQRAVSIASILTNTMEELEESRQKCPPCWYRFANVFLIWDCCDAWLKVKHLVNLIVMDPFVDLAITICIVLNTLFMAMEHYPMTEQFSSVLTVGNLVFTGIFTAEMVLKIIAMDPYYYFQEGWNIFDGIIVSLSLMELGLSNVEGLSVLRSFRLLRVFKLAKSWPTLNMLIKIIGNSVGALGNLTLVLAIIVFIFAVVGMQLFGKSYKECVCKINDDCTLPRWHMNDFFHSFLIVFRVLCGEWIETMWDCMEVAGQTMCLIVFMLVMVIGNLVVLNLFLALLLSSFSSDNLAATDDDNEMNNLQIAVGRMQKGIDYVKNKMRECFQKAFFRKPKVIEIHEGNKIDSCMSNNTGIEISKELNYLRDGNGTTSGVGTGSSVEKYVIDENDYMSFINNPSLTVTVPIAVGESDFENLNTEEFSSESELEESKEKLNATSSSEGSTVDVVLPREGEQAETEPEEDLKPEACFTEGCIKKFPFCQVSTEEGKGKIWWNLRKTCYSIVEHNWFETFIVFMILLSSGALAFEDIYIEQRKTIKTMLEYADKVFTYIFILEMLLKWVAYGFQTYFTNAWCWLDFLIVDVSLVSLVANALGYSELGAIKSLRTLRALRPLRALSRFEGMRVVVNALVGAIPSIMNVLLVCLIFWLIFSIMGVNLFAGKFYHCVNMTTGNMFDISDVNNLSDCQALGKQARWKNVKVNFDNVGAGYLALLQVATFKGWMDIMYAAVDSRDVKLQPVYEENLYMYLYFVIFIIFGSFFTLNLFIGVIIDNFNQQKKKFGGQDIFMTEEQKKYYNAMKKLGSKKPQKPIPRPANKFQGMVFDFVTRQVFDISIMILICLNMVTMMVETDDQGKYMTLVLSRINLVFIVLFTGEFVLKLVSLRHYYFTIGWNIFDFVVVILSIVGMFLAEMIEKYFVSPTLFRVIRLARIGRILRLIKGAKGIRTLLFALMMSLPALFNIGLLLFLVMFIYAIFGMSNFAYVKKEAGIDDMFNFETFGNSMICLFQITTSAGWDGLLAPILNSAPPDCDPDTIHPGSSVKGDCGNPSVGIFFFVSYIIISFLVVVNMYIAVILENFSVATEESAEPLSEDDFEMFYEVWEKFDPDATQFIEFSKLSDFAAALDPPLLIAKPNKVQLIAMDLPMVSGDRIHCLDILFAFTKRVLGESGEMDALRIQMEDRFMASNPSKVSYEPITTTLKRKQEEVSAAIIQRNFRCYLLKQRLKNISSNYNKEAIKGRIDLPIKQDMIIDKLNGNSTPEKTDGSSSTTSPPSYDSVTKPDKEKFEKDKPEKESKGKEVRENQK
Chain of hNav1.5 (Q14524 whole entry, looked up): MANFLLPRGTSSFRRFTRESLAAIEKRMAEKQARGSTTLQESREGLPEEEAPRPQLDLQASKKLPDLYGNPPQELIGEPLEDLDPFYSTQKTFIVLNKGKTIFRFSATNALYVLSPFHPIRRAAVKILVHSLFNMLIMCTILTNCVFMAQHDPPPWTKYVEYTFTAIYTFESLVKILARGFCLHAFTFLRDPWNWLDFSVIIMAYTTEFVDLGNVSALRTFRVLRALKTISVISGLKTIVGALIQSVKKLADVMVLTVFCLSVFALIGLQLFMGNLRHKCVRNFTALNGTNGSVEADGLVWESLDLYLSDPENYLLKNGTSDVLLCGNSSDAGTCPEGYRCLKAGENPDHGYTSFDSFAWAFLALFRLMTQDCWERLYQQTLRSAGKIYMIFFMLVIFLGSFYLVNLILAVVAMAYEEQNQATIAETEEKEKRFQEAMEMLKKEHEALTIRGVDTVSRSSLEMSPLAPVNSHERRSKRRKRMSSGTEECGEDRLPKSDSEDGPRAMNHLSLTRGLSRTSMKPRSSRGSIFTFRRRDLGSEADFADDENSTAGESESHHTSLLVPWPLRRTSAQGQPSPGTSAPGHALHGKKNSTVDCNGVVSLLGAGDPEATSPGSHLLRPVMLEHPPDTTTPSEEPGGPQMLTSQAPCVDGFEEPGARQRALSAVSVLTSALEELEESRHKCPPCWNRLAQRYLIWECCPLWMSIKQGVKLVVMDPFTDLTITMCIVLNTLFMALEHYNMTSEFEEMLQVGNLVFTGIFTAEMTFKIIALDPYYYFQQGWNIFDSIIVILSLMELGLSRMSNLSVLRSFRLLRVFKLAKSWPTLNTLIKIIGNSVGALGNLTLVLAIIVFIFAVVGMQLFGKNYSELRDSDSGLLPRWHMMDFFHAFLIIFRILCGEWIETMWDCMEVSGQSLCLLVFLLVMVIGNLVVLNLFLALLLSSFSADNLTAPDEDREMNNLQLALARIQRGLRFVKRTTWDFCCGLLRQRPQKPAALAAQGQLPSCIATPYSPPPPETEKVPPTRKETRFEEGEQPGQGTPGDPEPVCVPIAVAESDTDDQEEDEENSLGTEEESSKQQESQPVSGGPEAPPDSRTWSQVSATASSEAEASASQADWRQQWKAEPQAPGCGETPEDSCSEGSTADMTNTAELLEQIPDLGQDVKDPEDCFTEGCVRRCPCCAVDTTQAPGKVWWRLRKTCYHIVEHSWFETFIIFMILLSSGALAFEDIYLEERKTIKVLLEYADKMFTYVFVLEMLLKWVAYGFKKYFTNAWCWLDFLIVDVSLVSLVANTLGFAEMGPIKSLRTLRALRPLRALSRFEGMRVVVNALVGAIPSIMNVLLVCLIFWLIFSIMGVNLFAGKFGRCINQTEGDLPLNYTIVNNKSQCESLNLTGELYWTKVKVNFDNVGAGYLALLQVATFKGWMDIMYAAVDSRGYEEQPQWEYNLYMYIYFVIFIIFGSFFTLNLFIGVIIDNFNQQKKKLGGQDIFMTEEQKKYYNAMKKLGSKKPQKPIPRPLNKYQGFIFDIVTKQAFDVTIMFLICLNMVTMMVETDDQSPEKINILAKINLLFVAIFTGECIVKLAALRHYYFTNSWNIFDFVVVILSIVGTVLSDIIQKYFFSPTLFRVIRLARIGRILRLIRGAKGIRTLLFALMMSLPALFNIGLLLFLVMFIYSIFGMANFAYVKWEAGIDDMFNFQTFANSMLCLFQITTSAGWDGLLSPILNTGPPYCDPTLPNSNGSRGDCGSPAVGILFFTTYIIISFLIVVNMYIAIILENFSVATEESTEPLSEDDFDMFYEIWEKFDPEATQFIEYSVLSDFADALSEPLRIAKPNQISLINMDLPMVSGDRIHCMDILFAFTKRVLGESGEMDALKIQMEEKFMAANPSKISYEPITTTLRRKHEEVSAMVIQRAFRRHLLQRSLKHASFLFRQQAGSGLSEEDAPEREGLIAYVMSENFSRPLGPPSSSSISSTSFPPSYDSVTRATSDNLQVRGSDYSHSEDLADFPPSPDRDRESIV

| SMILES | IC50 (hNav1.3) [µM] | IC50 (hNav1.5) [µM] | IC50 (hNav1.7) [µM] |
| --- | --- | --- | --- |
| CC[C@H](C)[C@@H]1NC(=O)[C@@H]2CSSC[C@@H]3NC(=O)[C@H](C(C)C)NC(=O)[C@H](CC(C)C)NC(=O)[C@H](CC(N)=O)NC(=O)[C@@H]4CCCN4C(=O)[C@H](CCCNC(=N)N)NC(=O)[C@H](CSSC[C@H](NC(=O)[C@@H](N)CC(=O)O)C(=O)N[C@@H](CC(C)C)C(=O)NCC(=O)N[C@@H](Cc4ccccc4)C(=O)N[C@@H](CCSC)C(=O)N[C@@H](CCCNC(=N)N)C(=O)N[C@@H](CCCCN)C(=O)N2)NC(=O)[C@H](CSSC[C@@H](C(=O)N[C@@H](CCCCN)C(=O)N[C@@H](Cc2ccc(O)cc2)C(=O)N[C@@H](CO)C(=O)N[C@@H](Cc2ccccc2)C(N)=O)NC(=O)[C@H](Cc2c[nH]c4ccccc24)NC(=O)[C@H](CCCCN)NC(=O)[C@H](Cc2c[nH]cn2)NC(=O)[C@H]([C@@H](C)O)NC(=O)[C@H](CCCNC(=N)N)NC(=O)[C@H](CO)NC3=O)NC(=O)[C@H](CCCCN)NC(=O)[C@H](CC(=O)O)NC(=O)[C@H](CC(N)=O)NC(=O)[C@H](CC(=O)O)NC(=O)[C@@H]2CCCN2C1=O [compound 397] (H-DCLGFMRKCIPDNDKCCRPNLVCSRTHKWCKYSF-NH2; disulfide 2-17, 9-23, 16-30) | 0.06 | 6.28 | 0.04 |
| CC[C@H](C)[C@@H]1NC(=O)[C@@H]2CSSC[C@@H]3NC(=O)[C@H](C(C)C)NC(=O)[C@H](CC(C)C)NC(=O)[C@H](CC(N)=O)NC(=O)[C@@H]4CCCN4C(=O)[C@H](CCCNC(=N)N)NC(=O)[C@H](CSSC[C@H](NC(=O)[C@@H](N)CC(=O)O)C(=O)N[C@@H](CC(C)C)C(=O)NCC(=O)N[C@@H](Cc4ccccc4)C(=O)N[C@@H](CCSC)C(=O)N[C@@H](CCCNC(=N)N)C(=O)N[C@@H](CCCCN)C(=O)N2)NC(=O)[C@H](CSSC[C@@H](C(=O)N[C@@H](CCCCN)C(=O)N[C@@H](Cc2ccc(O)cc2)C(=O)N2CCC[C@H]2C(=O)N[C@@H](Cc2ccccc2)C(N)=O)NC(=O)[C@H](Cc2c[nH]c4ccccc24)NC(=O)[C@H](CCCCN)NC(=O)[C@H](Cc2c[nH]cn2)NC(=O)[C@H]([C@@H](C)O)NC(=O)[C@H](CCCNC(=N)N)NC(=O)[C@H](CO)NC3=O)NC(=O)[C@H](CCCCN)NC(=O)[C@H](CC(=O)O)NC(=O)[C@H](CC(N)=O)NC(=O)[C@H](CC(=O)O)NC(=O)[C@@H]2CCCN2C1=O [compound 398] (H-DCLGFMRKCIPDNDKCCRPNLVCSRTHKWCKYPF-NH2; disulfide 2-17, 9-23, 16-30) | 3.34 | 6.93 | 5.19 |
| CC[C@H](C)[C@@H]1NC(=O)[C@@H]2CSSC[C@@H]3NC(=O)[C@H](C(C)C)NC(=O)[C@H](CC(C)C)NC(=O)[C@H](CC(N)=O)NC(=O)[C@@H]4CCCN4C(=O)[C@H](CCCNC(=N)N)NC(=O)[C@H](CSSC[C@H](NC(=O)[C@@H](N)CC(=O)O)C(=O)N[C@@H](CC(C)C)C(=O)NCC(=O)N[C@@H](Cc4ccccc4)C(=O)N[C@@H](CCSC)C(=O)N[C@@H](CCCNC(=N)N)C(=O)N[C@@H](CCCCN)C(=O)N2)NC(=O)[C@H](CSSC[C@@H](C(=O)N[C@@H](CCCCN)C(=O)N[C@@H](Cc2ccc(O)cc2)C(=O)N[C@@H](Cc2ccc(O)cc2)C(=O)N[C@@H](Cc2ccccc2)C(N)=O)NC(=O)[C@H](Cc2c[nH]c4ccccc24)NC(=O)[C@H](CCCCN)NC(=O)[C@H](Cc2c[nH]cn2)NC(=O)[C@H]([C@@H](C)O)NC(=O)[C@H](CCCNC(=N)N)NC(=O)[C@H](CO)NC3=O)NC(=O)[C@H](CCCCN)NC(=O)[C@H](CC(=O)O)NC(=O)[C@H](CC(N)=O)NC(=O)[C@H](CC(=O)O)NC(=O)[C@@H]2CCCN2C1=O [compound 399] (H-DCLGFMRKCIPDNDKCCRPNLVCSRTHKWCKYYF-NH2; disulfide 2-17, 9-23, 16-30) | 0.03 | > 5 | 0.07 |
